PubChem BioAssay AID220 (DTP/NCI, 2004)
Values joined by “and” are separate entries in the source; they are usually repeats but may differ in a detail not shown here. Identical values can stand only once. Results filed as inconclusive are left out.

Test system: CD8F1 mice, subcutaneous mammary adenocarcinoma, T/C%
Assay: NCI In Vivo Anticancer Drug Screen. Data for tumor model Mammary Adenocarcinoma CD8F1 (subcutaneous) in CD8F1
Conditions: higher = larger tumour
Method in brief: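 Antitumor activity is assessed in transplantable-tumor mice by comparing the treated group with a vehicle-treated control group. Survival or tumor size serves as the measure, reported as T divided by C.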

[1] = endpoint: median tumor weight (est.), dose: 12.5 mg/kg/injection, schedule: Q07DX005 (ip), vehicle: saline
[2] = endpoint: median tumor weight (est.), dose: 25.0 mg/kg/injection, schedule: Q07DX005 (ip), vehicle: saline
[3] = endpoint: median tumor weight (est.), dose: 50.0 mg/kg/injection, schedule: Q07DX005 (ip), vehicle: saline

In the case of `O=[N+]([O-])c1ccc(-n2[nH]nnc2=S)cc1`, the T/C (endpoint: median tumor weight change, dose: 125.0 mg/kg/injection, schedule: Q01DX001 (ip), vehicle: saline with Tween-80) is reported as 101 % of control and 119 % of control and the T/C (endpoint: median tumor weight change, dose: 250.0 mg/kg/injection, schedule: Q01DX001 (ip), vehicle: saline with Tween-80) is reported as 112 % of control.
For `c1ccc2c(c1)[As]=c1ccccc1=[As]2` (configuration not stated), the T/C (endpoint: median tumor weight change, dose: 60.0 mg/kg/injection, schedule: Q01DX001 (ip), vehicle: saline with Tween-80) was 159 % of control, the T/C (endpoint: median tumor weight change, dose: 120.0 mg/kg/injection, schedule: Q01DX001 (ip), vehicle: saline with Tween-80) was 158 % of control and the T/C (endpoint: median tumor weight change, dose: 240.0 mg/kg/injection, schedule: Q01DX001 (ip), vehicle: saline with Tween-80) was 31 % of control.
In the case of `CO[C@@]12[C@H](COC(N)=O)C3=C(C(=O)C(C)=C(N)C3=O)N1C[C@@H]1N[C@@H]12`, the T/C (endpoint: median tumor weight (est.), dose: 0.37 mg/kg/injection, schedule: Q07DX006 (ip), vehicle: saline) is reported as 63 % of control, the T/C (endpoint: median tumor weight (est.), dose: 0.75 mg/kg/injection, schedule: Q07DX006 (ip), vehicle: saline) is reported as 47 % of control and the T/C (endpoint: median tumor weight (est.), dose: 1.5 mg/kg/injection, schedule: Q07DX006 (ip), vehicle: saline) is reported as 27 % of control.
For `C(CSC1=NCCN1)CSC1=NCCN1`, the T/C [1] was 98 % of control, the T/C [2] was 103 % of control and the T/C [3] was 76 % of control. For the same compound, the T/C (endpoint: median tumor weight (est.), dose: 100.0 mg/kg/injection, schedule: Q07DX005 (ip), vehicle: saline) was 102 % of control and the T/C (endpoint: median tumor weight (est.), dose: 200.0 mg/kg/injection, schedule: Q07DX005 (ip), vehicle: saline) was 69 % of control.
For `O=C(Nc1ccccc1)c1c(O)[nH]c(=S)[nH]c1=O`, the T/C (endpoint: median tumor weight change, dose: 56.0 mg/kg/injection, schedule: Q01DX001 (ip), vehicle: saline with Tween-80) was 61 % of control and the T/C (endpoint: median tumor weight change, dose: 112.0 mg/kg/injection, schedule: Q01DX001 (ip), vehicle: saline with Tween-80) was 80 % of control.
In the case of `CC[N](CC)[Ge]([CH2]C)[CH2]C.CC[N](CC)[Ge]([CH2]C)[CH2]C`, the T/C (endpoint: median tumor weight (est.), dose: 6.25 mg/kg/injection, schedule: Q07DX005 (ip), vehicle: saline) is reported as 116 % of control, the T/C [1] is reported as 74 % of control and the T/C [2] is reported as 124 % of control. For the same compound, the T/C [3] was 94 % of control.
In the case of `COc1cccc2c1C(=O)c1c(O)c3c(c(O)c1C2=O)C[C@@](O)(/C(C)=N/NC(=O)c1cccc([N+](=O)[O-])c1)C[C@@H]3OC1CC(N)C(O)C(C)O1` (some centres not stated), the T/C (endpoint: mean tumor weight, dose: 4.0 mg/kg/injection, schedule: Q07DX004 (ip), vehicle: saline) is reported as 98 % of control, the T/C (endpoint: mean tumor weight, dose: 8.0 mg/kg/injection, schedule: Q07DX004 (ip), vehicle: saline) is reported as 51 % of control and the T/C (endpoint: mean tumor weight, dose: 16.0 mg/kg/injection, schedule: Q07DX004 (ip), vehicle: saline) is reported as 94 % of control. The T/C (endpoint: mean tumor weight, dose: 32.0 mg/kg/injection, schedule: Q07DX004 (ip), vehicle: saline) was 1 % of control, the T/C (endpoint: median tumor weight (est.), dose: 4.0 mg/kg/injection, schedule: Q07DX005 (ip), vehicle: saline) was 93 % of control and the T/C (endpoint: median tumor weight (est.), dose: 8.0 mg/kg/injection, schedule: Q07DX005 (ip), vehicle: saline) was 41 % of control. The T/C (endpoint: median tumor weight (est.), dose: 16.0 mg/kg/injection, schedule: Q07DX005 (ip), vehicle: saline) was 5 % of control.
In the case of `NC(CSC(c1ccccc1)(c1ccccc1)c1ccccc1)C(=O)O` (configuration not stated), the T/C (endpoint: median tumor weight (est.), dose: 32.0 mg/kg/injection, schedule: Q07DX005 (ip), vehicle: Klucel (hydroxypropylcellulose) (HPC)) is reported as 101 % of control, the T/C (endpoint: median tumor weight (est.), dose: 64.0 mg/kg/injection, schedule: Q07DX005 (ip), vehicle: Klucel (hydroxypropylcellulose) (HPC)) is reported as 71 % of control and the T/C (endpoint: median tumor weight (est.), dose: 128.0 mg/kg/injection, schedule: Q07DX005 (ip), vehicle: Klucel (hydroxypropylcellulose) (HPC)) is reported as 74 % of control.
For `Cc1cc(NCCN(C(C)C)C(C)C)nc(/N=C(\N)Nc2ccc(Cl)c(C(F)(F)F)c2)n1`, the T/C (endpoint: median tumor weight change, dose: 12.5 mg/kg/injection, schedule: Q01DX001 (ip), vehicle: Klucel (hydroxypropylcellulose) (HPC)) was 39 % of control and 45 % of control, the T/C (endpoint: median tumor weight change, dose: 50.0 mg/kg/injection, schedule: Q01DX001 (ip), vehicle: Klucel (hydroxypropylcellulose) (HPC)) was 27 % of control and 39 % of control and the T/C (endpoint: median tumor weight change, dose: 100.0 mg/kg/injection, schedule: Q01DX001 (ip), vehicle: Klucel (hydroxypropylcellulose) (HPC)) was 50 % of control and 74 % of control.
For `CCN=C=NCCCN(C)C`, the T/C (endpoint: median tumor weight change, dose: 3.9 mg/kg/injection, schedule: Q01DX001 (ip), vehicle: saline) was 115 % of control, the T/C (endpoint: median tumor weight change, dose: 7.81 mg/kg/injection, schedule: Q01DX001 (ip), vehicle: saline) was 112 % of control and the T/C (endpoint: median tumor weight change, dose: 15.63 mg/kg/injection, schedule: Q01DX001 (ip), vehicle: saline) was 92 % of control. The T/C (endpoint: median tumor weight change, dose: 31.25 mg/kg/injection, schedule: Q01DX001 (ip), vehicle: saline) was 109 % of control and the T/C (endpoint: median tumor weight change, dose: 62.5 mg/kg/injection, schedule: Q01DX001 (ip), vehicle: saline) was 67 % of control.
